Results on one compound are retold here after patent EP1283052A1, “Pharmaceutical composition containing caspase-8 and /or caspase-9 useful for overcoming glucocorticoid- and cancer therapy-induced apoptosis of tumours” (Deutsches Krebsforschungszentrum Stiftung des öffentlichen …, priority 2001, dated 2003).

The test system of this assay is caspase-9. The assay is described as follows: RT-PCR for caspase-9 mRNA expression in P5 cells. Format: cell-based, human. The note with it: cisplatin 2 µg/ml, 6 and 24 h, Fig. 4a. On the procedure:
P5 cells either untreated (CO) or stimulated with cisplatin (CIS, 2 µg/ml) were incubated in the absence or presence of DEX (1 µM). • (a) 6 and 24 h later RNA was extracted and assayed by RT-PCR for expression of caspase-9. Expression of the GAPDH gene served as control for equal conditions. • (b) 24 h after stimulation expression of caspase-9 proteins was examined by immunofluorescence staining using a rabbit polyclonal caspase-9 antibody and a FITC-coupled secondary antibody. Staining with the secondary antibody alone served as control for unspecific binding. • (c) 48 and 72 h after treatment whole cell proteins were extracted and analysed for expression of caspase-9 and caspase-3. The protein sizes in kDa are indicated on the right. […]
• (A) Cell culture. […] The mice were given 0.28 mg/L DEX in drinking water, and the amount of water consumed was monitored. […] The tumour volumes were measured using callipers, and calculated using, as an approximation, the formula for volume of a hemi-ellipsoid: π(width^2 x length)/6. […] Early apoptotic changes were identified by staining of cells with fluoresceinthiocyanate (FITC)-conjugated annexin V and propidium iodide (Becton Dickinson, Heidelberg, Germany) and analysed by flow cytometry (FACScan, Becton Dickinson) as described (Herr et al., EMBO J. 16 (1997), 6200-6208) • (E) Immunohistochemistry. […]

SMILES strings stand for the structures.

As to `N.N.[Cl][Pt][Cl]` [cisplatin], the “caspase-9 mRNA expression” value is “strongly enhanced”.
